Experimental data from patent US9474790B2, “Stable, protracted GLP-1/glucagon receptor co-agonists for medical use” (Novo Nordisk A/S, priority 2013, dated 2016).
Numbered stars: 1 amine (or outer) side, 2 acyl side, 3 side chain; on linkers, the order of the positions; unused ones are H or OH. Square brackets hold non-standard residues; d marks the D form. Side chains are listed from the residue outwards. Peptide text beside a SMILES is read from it. * marks the point of attachment. C18 diacid = O=C(O)CCCCCCCCCCCCCCCCC(=O)*; γGlu = O=C(O)[C@H](CCC(=O)[*:2])N[*:1]; AEEA = NCCOCCOCC(=O)O; Aib = CC(C)(N)C(=O)O

Target: T1, human GLP-1 receptor (Homo sapiens, UniProt P43220)
T1 construct: expressed in transfected cells; host or cells: BHK cells (parent BHKTS13), clone FCW467-12A/KZ10-1, with CRE luciferase
Test: GLP-1 receptor binding, 125I-GLP-1 displacement SPA on isolated membranes
Details: displacement of 125I-GLP-1 from membranes; read-out: IC50 GLP-1R
Method in brief: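 SPA displacement of 125I-GLP-1(7-36)NH2 from membranes of BHK cells expressing human GLP-1 receptor, with WGA beads, in 50 mM HEPES, 5 mM EGTA, 5 mM MgCl2, 0.005% Tween 20, pH 7.4. Incubated 2 h at 30°C; IC50 by non-linear regression, run at ≤0.001% or 2.0% final serum albumin.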

T1 sequence (P43220 24-463): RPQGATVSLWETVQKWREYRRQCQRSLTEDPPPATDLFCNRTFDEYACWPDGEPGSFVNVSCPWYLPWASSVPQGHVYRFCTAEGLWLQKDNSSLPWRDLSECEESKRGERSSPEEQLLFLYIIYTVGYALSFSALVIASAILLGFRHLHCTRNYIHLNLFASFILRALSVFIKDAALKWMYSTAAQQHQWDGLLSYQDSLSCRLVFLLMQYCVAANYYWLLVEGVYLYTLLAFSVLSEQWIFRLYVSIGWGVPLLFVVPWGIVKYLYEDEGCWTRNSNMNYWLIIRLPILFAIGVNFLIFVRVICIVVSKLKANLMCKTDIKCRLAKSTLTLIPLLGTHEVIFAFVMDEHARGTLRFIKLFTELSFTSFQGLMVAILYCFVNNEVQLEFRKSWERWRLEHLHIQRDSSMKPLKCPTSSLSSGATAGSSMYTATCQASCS

SMILES	IC50
CC(C)C[C@H](NC(=O)[C@H](Cc1ccc(O)cc1)NC(=O)[C@H](CCCCN)NC(=O)[C@H](CO)NC(=O)[C@H](CC(C)C)NC(=O)[C@H](CC(=O)O)NC(=O)[C@H](CO)NC(=O)[C@@H](NC(=O)[C@H](Cc1ccccc1)NC(=O)[C@@H](NC(=O)CNC(=O)[C@H](CCC(N)=O)NC(=O)C(C)(C)NC(=O)[C@@H](N)Cc1c[nH]cn1)[C@@H](C)O)[C@@H](C)O)C(=O)N[C@@H](CCC(=O)O)C(=O)N[C@@H](CO)C(=O)N[C@@H](CCCNC(=N)N)C(=O)N[C@@H](CCCNC(=N)N)C(=O)N[C@@H](C)C(=O)N[C@@H](CCCNC(=N)N)C(=O)N[C@@H](CCC(=O)O)C(=O)N[C@@H](Cc1ccccc1)C(=O)N[C@H](C(=O)N[C@@H](CCC(N)=O)C(=O)N[C@@H](Cc1c[nH]c2ccccc12)C(=O)N[C@@H](CC(C)C)C(=O)N[C@@H](CC(C)C)C(=O)N[C@@H](CCCCNC(=O)CC[C@H](NC(=O)COCCOCCNC(=O)COCCOCCNC(=O)CC[C@H](NC(=O)CC[C@H](NC(=O)CCCCCCCCCCCCCCCCC(=O)O)C(=O)O)C(=O)O)C(=O)O)C(=O)N[C@H](C(N)=O)[C@@H](C)O)C(C)C [Example 20, N^ε29-[(4S)-4-carboxy-4-[[2-[2-[2-[[2-[2-[2-[[(4S)-4-carboxy-4-[[(4S)-4-carboxy-4-(17-carboxyheptadecanoylamino)butanoyl]amino]butanoyl]amino]ethoxy]ethoxy]acetyl]amino]ethoxy]ethoxy]acetyl]amino]butanoyl]-[Aib2,Leu10,Glu15,Arg20,Glu21,Leu27,Lys28]-Glucagon amide] (H-H[Aib]QGTFTSDLSKYLESRRAREFVQWLLK([γGlu-AEEA-AEEA-γGlu-γGlu-C18 diacid])T-NH2; N-terminus assumed)	0.4 nM
CC(C)C[C@H](NC(=O)[C@H](CC(C)C)NC(=O)[C@H](Cc1c[nH]c2ccccc12)NC(=O)[C@H](CCC(N)=O)NC(=O)[C@@H](NC(=O)[C@H](Cc1ccccc1)NC(=O)[C@H](CCC(=O)O)NC(=O)[C@H](CCCNC(=N)N)NC(=O)[C@H](C)NC(=O)[C@H](CCCNC(=N)N)NC(=O)[C@H](CCCNC(=N)N)NC(=O)[C@H](CO)NC(=O)[C@H](CCC(=O)O)NC(=O)[C@H](CC(C)C)NC(=O)[C@H](Cc1ccc(O)cc1)NC(=O)[C@H](CCCCN)NC(=O)[C@H](CO)NC(=O)[C@H](CC(C)C)NC(=O)[C@H](CC(=O)O)NC(=O)[C@H](CO)NC(=O)[C@@H](NC(=O)[C@H](Cc1ccccc1)NC(=O)[C@@H](NC(=O)CNC(=O)[C@H](CCC(N)=O)NC(=O)C(C)(C)NC(=O)[C@@H](N)Cc1c[nH]cn1)[C@@H](C)O)[C@@H](C)O)C(C)C)C(=O)N[C@@H](CC(N)=O)C(=O)N[C@@H](CCCCNC(=O)CC[C@H](NC(=O)COCCOCCNC(=O)COCCOCCNC(=O)CC[C@H](NC(=O)CC[C@H](NC(=O)CCCCCCCCCCCCCCCCC(=O)O)C(=O)O)C(=O)O)C(=O)O)C(N)=O [Example 21, N^ε29-[(4S)-4-carboxy-4-[[2-[2-[2-[[2-[2-[2-[[(4S)-4-carboxy-4-[[(4S)-4-carboxy-4-(17-carboxyheptadecanoylamino)butanoyl]amino]butanoyl]amino]ethoxy]ethoxy]acetyl]amino]ethoxy]ethoxy]acetyl]amino]butanoyl]-[Aib2,Leu10,Glu15,Arg20,Glu21,Leu27,Lys29]-Glucagon amide] (H-H[Aib]QGTFTSDLSKYLESRRAREFVQWLLNK([γGlu-AEEA-AEEA-γGlu-γGlu-C18 diacid])-NH2; N-terminus assumed)	0.3 nM
CC(C)C[C@H](NC(=O)[C@H](Cc1ccc(O)cc1)NC(=O)[C@H](CCCCN)NC(=O)[C@H](CO)NC(=O)[C@H](CC(C)C)NC(=O)[C@H](CC(=O)O)NC(=O)[C@H](CO)NC(=O)[C@@H](NC(=O)[C@H](Cc1ccccc1)NC(=O)[C@@H](NC(=O)CNC(=O)[C@H](Cc1c[nH]cn1)NC(=O)C(C)(C)NC(=O)[C@@H](N)Cc1c[nH]cn1)[C@@H](C)O)[C@@H](C)O)C(=O)N[C@@H](CCC(=O)O)C(=O)N[C@@H](CO)C(=O)N[C@@H](CCCNC(=N)N)C(=O)N[C@@H](CCCNC(=N)N)C(=O)N[C@@H](C)C(=O)N[C@@H](CCCNC(=N)N)C(=O)N[C@@H](CCC(=O)O)C(=O)N[C@@H](Cc1ccccc1)C(=O)N[C@H](C(=O)N[C@@H](CCC(N)=O)C(=O)N[C@@H](Cc1c[nH]c2ccccc12)C(=O)N[C@@H](CC(C)C)C(=O)N[C@@H](CC(C)C)C(=O)N[C@@H](CCCCNC(=O)CC[C@H](NC(=O)COCCOCCNC(=O)COCCOCCNC(=O)CC[C@H](NC(=O)CC[C@H](NC(=O)CCCCCCCCCCCCCCCCC(=O)O)C(=O)O)C(=O)O)C(=O)O)C(=O)N[C@H](C(N)=O)[C@@H](C)O)C(C)C [Example 30, N^ε28-[(4S)-4-carboxy-4-[[2-[2-[2-[[2-[2-[2-[[(4S)-4-carboxy-4-[[(4S)-4-carboxy-4-(17-carboxyheptadecanoylamino)butanoyl]amino]butanoyl]amino]ethoxy]ethoxy]acetyl]amino]ethoxy]ethoxy]acetyl]amino]butanoyl]-[Aib2,His3,Leu10,Glu15,Arg20,Glu21,Leu27,Lys28]-Glucagon amide] (H-H[Aib]HGTFTSDLSKYLESRRAREFVQWLLK([γGlu-AEEA-AEEA-γGlu-γGlu-C18 diacid])T-NH2; N-terminus assumed)	1.4 nM

Further lines, results first:

IC50	SMILES
0.5 nM	CC(C)C[C@H](NC(=O)[C@H](Cc1ccc(O)cc1)NC(=O)[C@H](CCCCN)NC(=O)[C@H](CO)NC(=O)[C@H](CC(C)C)NC(=O)[C@H](CC(=O)O)NC(=O)[C@H](CO)NC(=O)[C@@H](NC(=O)[C@H](Cc1ccccc1)NC(=O)[C@@H](NC(=O)CNC(=O)[C@H](CCC(N)=O)NC(=O)C(C)(C)NC(=O)[C@@H](N)Cc1c[nH]cn1)[C@@H](C)O)[C@@H](C)O)C(=O)N[C@@H](CC(=O)O)C(=O)N[C@@H](CCCCNC(=O)CC[C@H](NC(=O)CC[C@H](NC(=O)COCCOCCNC(=O)COCCOCCNC(=O)CC[C@H](NC(=O)CCCCCCCCCCCCCCCCC(=O)O)C(=O)O)C(=O)O)C(=O)O)C(=O)N[C@@H](CCCNC(=N)N)C(=O)N[C@@H](CCCNC(=N)N)C(=O)N[C@@H](C)C(=O)N[C@@H](CCCNC(=N)N)C(=O)N[C@@H](CCC(=O)O)C(=O)N[C@@H](Cc1ccccc1)C(=O)N[C@H](C(=O)N[C@@H](CCC(N)=O)C(=O)N[C@@H](Cc1c[nH]c2ccccc12)C(=O)N[C@@H](CC(C)C)C(=O)N[C@@H](CC(C)C)C(=O)N[C@@H](CC(N)=O)C(=O)N[C@H](C(N)=O)[C@@H](C)O)C(C)C [Example 10, N^ε16-[(4S)-4-carboxy-4-[[(4S)-4-carboxy-4-[[2-[2-[2-[[2-[2-[2-[[(4S)-4-carboxy-4-(17-carboxyheptadecanoylamino)butanoyl]amino]ethoxy]ethoxy]acetyl]amino]ethoxy]ethoxy]acetyl]amino]butanoyl]amino]butanoyl]-[Aib2,Leu10,Lys16,Arg20,Glu21,Leu27]-Glucagon amide] (H-H[Aib]QGTFTSDLSKYLDK([γGlu-γGlu-AEEA-AEEA-γGlu-C18 diacid])RRAREFVQWLLNT-NH2; N-terminus assumed)
0.9 nM	CC(C)C[C@H](NC(=O)[C@H](Cc1c[nH]c2ccccc12)NC(=O)[C@H](C)NC(=O)[C@@H](NC(=O)[C@H](Cc1ccccc1)NC(=O)[C@H](CCC(=O)O)NC(=O)[C@H](CCCNC(=N)N)NC(=O)[C@H](C)NC(=O)[C@H](CCCNC(=N)N)NC(=O)[C@H](CCCNC(=N)N)NC(=O)[C@H](CCCCNC(=O)CC[C@H](NC(=O)COCCOCCNC(=O)COCCOCCNC(=O)CC[C@H](NC(=O)CC[C@H](NC(=O)CCCCCCCCCCCCCCCCC(=O)O)C(=O)O)C(=O)O)C(=O)O)NC(=O)[C@H](CC(=O)O)NC(=O)[C@H](CC(C)C)NC(=O)[C@H](Cc1ccc(O)cc1)NC(=O)[C@H](CCCCN)NC(=O)[C@H](CO)NC(=O)[C@H](CC(C)C)NC(=O)[C@H](CC(=O)O)NC(=O)[C@H](CO)NC(=O)[C@@H](NC(=O)[C@H](Cc1ccccc1)NC(=O)[C@@H](NC(=O)CNC(=O)[C@H](CCC(N)=O)NC(=O)C(C)(C)NC(=O)[C@@H](N)Cc1c[nH]cn1)[C@@H](C)O)[C@@H](C)O)C(C)C)C(=O)N[C@@H](CC(C)C)C(=O)N[C@@H](CC(N)=O)C(=O)N[C@H](C(N)=O)[C@@H](C)O [Example 19, N^ε29-[(4S)-4-carboxy-4-[[2-[2-[2-[[2-[2-[2-[[(4S)-4-carboxy-4-[[(4S)-4-carboxy-4-(17-carboxyheptadecanoylamino)butanoyl]amino]butanoyl]amino]ethoxy]ethoxy]acetyl]amino]ethoxy]ethoxy]acetyl]amino]butanoyl]-[Aib2,Leu10,Lys16,Arg20,Glu21,Ala24,Leu27]-Glucagon amide] (H-H[Aib]QGTFTSDLSKYLDK([γGlu-AEEA-AEEA-γGlu-γGlu-C18 diacid])RRAREFVAWLLNT-NH2; N-terminus assumed)
